Laboratory results taken from ChEMBL document CHEMBL1141762, “Morphinane alkaloids with cell protective effects from Sinomenium acutum” (J Nat Prod, 2005).
Activity calls are given as the source filed them. The calls are words filed in the database; no cut-off is given here.

The molecules below were run on PC-12 (assay: Cell protective activity against rat PC12 cells assessed as protection against H2O2-induced injury).
Assay type: functional, cell-based

Compound	Activity
COC1=C[C@H]2[C@H]3Cc4ccc(OC)c(O)c4[C@@]2(CCN3)C[C@@H]1O	Active
COC1=C[C@H]2[C@H]3Cc4ccc(OC)c(O)c4[C@@]2(CCN3)CC1=O	Active
COC1=C[C@]23CCN(C)[C@H](Cc4ccc(OC)c(O)c42)C3=CC1=O	Active
